Where “and” joins values, the source holds several entries; their conditions need not be identical. Equal values may be shown once. Entries after “also recorded” stand apart in the source; their conditions may differ.

Series [1] is described as follows: Nucleic acid encapsulation in SNALP, RiboGreen fluorescence assay. As to conditions: SNALP DSPC:Chol:PEG-C-DMA:Cationic Lipid 20:48:2:30 molar percent, siRNA; mean of 3 experiments, error is standard deviation. The class given is physicochemical. On the procedure: (§1) SNALP Preparation: SNALP with a lipid composition of DSPC:Chol:PEG-C-DMA:Cationic Lipid (20:48:2:30 molar percent) were prepared using the spontaneous vesicle formation by ethanol dilution method [Jeffs et al., Pharm. Res. In Press (2005)]. The sample's were diafiltered against 100 mL of PBS (20 wash volumes) using a cross flow ultrafiltration cartridge (Amersham Biosciences, Piscataway, N.J.) and sterile filtered through Acrodisc 0.2 μm Posidyne filters (Pall Corp., Ann Arbor, Mich.). The siRNA concentration of final samples was determined using the RiboGreen assay and a siRNA standard curve. Particle size and polydispersity was determined using a Malvern Instruments Zetasizer 3000HSA (Malvern, UK). Nucleic acid encapsulation was determined using a RiboGreen assay, comparing fluorescence in the presence and absence of Triton X-100. RiboGreen fluorescence was measured using a Varian Eclipse Spectrofluorometer (Varian Inc) with λex=500 nm, λem=525 nm.
(§2) This example sets forth the physical properties of the SNALP formulations described herein. SNALP containing the various cationic lipids were prepared as described and encapsulated RNA and particle size assessed (Table 1 below). […] Polydispersity of all formulations was low, indicating a narrow distribution of particle size. RNA encapsulation in the final particles was 84-85% of the total.
(§3) Percentage Encapsulation was determined using the RiboGreen fluorescence assay to measure the amount of encapsulated nucleic acid relative to the total nucleic acid present. Particle diameter and polydispersity was measured using a Malvern Zetasizer. Values are the mean of 3 separate experiments, the error is standard deviation.

The nature of series [2]: SNALP particle diameter and polydispersity, Malvern Zetasizer. In kind it is physicochemical. As to conditions: SNALP DSPC:Chol:PEG-C-DMA:Cationic Lipid 20:48:2:30 molar percent; mean of 3 experiments, error is standard deviation. On the procedure: as §1, §2, §3
The test system of series [3] is luciferase expression in Neuro2A-G cells (Neuro2A cells stably transfected to express luciferase). As to the kind of experiment: In vitro transfection: luciferase gene silencing by SNALP encapsulating anti-luciferase siRNA. To be noted: SNALP with anti-luciferase siRNA; for knockdown in gene expression (luciferase) versus control SNALP containing mismatch siRNA: Neuro2A cells stably expressing luciferase, 48 hours; for luciferase expression relative to untreated control: after 48 hours. In kind it is cell-based. On the procedure:
In vitro Transfection: Cells were cultured in MEM (Invitrogen) containing 10% fetal bovine serum (FBS) (CanSera) and 0.25 mg/mL G418 (Invitrogen). Neuro2A-G cells (Neuro2A cells stably transfected to express luciferase [R. E. Kingston. in Current Protocols in Molecular Biology, Vol. 2, pp. 9.1.4-9.1.9, John Wiley & Sons, Inc. (1997)]) were plated at a concentration of 4×10^4 cells per well in 24-well plates and grown overnight. Cells were treated with SNALP at doses of 0.0625-1.0 μg/mL nucleic acid (AntiLuc Active or Mismatch Control) and incubated for 48 hours at 37° C. and 5% CO2. Cells were then washed with PBS and lysed with 200 μL 250 mM sodium phosphate containing 0.1% Triton X-100. The luciferase activity for each well was determined using Luciferase Reagent (Promega) and a standard luciferase protein (Roche). The luminescence for each was measured using a Berthold MicroLumatPlus LB96V plate luminometer. The resulting luciferase activity was then normalized for the amount of protein using the Micro BCA assay kit (Pierce). Luciferase knockdown relative to a control was then determined for each system.
This example describes experiments comparing expression of nucleic acids following in vitro transfection of Neuro2A cells with SNALP comprising: (1) DODAC, DODMA, or DLinDMA; (2) PEG-C-DMA; and (3) an siRNA duplex directed against luciferase encapsulated in the SNALP (i.e., siRNA comprising the following sequence: […] (SEQ ID NO:1) and targeting the DNA sequence complementary to: […] (SEQ ID NO:3)). Neuro2A cells were stably transfected with a plasmid encoding luciferase under the control of the CMV promoter (pLO55). The stably transfected cells were then transfected with SNALP comprising: 15, 20, 25, 30, 35, or 40% of DODAC, DODMA, or DLinDMA; 2% PEG-C-DMA, and an siRNA duplex directed against luciferase encapsulated in the SNALP. Luciferase protein expression was measured 48 hours after transfection with SNALP.
The ability of SNALP containing each of the four cationic lipids (i.e., DSDMA, DODMA, DLinDMA, and DLenDMA) to effect gene silencing in stably transfected Neuro2A cells was evaluated. Neuro2A cells stably transfected to express the luciferase were treated with SNALP containing anti-luciferase siRNA for 48 hours. Gene-silencing efficiency was evaluated by comparing the remaining luciferase activity in these cells to that remaining in cells treated with control SNALP containing mismatch siRNA.

A further series deals with Neuro2A cells. As to the kind of experiment: Cellular uptake of 3H-CHE-labeled SNALP. The class given is cell-based. As to conditions: 24 hours. On the procedure: Cellular Uptake: SNALP were prepared incorporating the non-exchangeable tritium-labeled lipid cholesteryl hexadecyl ether (3H—CHE) (11.1 μCi/μmol total lipid) [Bally et al., in Liposome Technology, Vol. III, pp. 27-41, CRC Press (1993)]. Neuro2A cells (ATCC, VA, USA) were plated in 12 well plates at 1.6×10^5 cells per well in minimal essential media. The following day, media was removed and replaced with media containing radiolabelled SNALP at 0.5 μg/mL nucleic acid. After 24 hours, the media and unincorporated SNALP were removed, adherent cells gently washed 4 times with PBS, and then lysed with 600 μL Lysis Buffer (250 mM phosphate with 0.1% Triton X-100). The resulting cell lysate (500 μL) was added to glass scintillation vials containing 5 mL Picofluor 40 (Perkin Elmer) and ^3H—CHE was determined using a Beckman LS6500 scintillation counter (Beckman Instruments). The protein content of cell lysates was determined using the Micro BCA assay (Pierce). Uptake was expressed as a percentage of the total amount of activity applied to the cells per mg of cellular protein.
The extent to which formulations are taken up by cells was measured with SNALP incorporating ^3H-labeled CHE [Bally et al., in Liposome Technology, Vol. III, pp. 27-41, CRC Press (1993)]. […] Uptake is expressed as a percentage of the total activity applied to the cells. […]

The nature of series [4]: TNS assay, apparent pKa of cationic lipid incorporated in SNALP. As to conditions: TNS fluorescence, pH varied from 4.5 to 9.5.
Protocol: TNS Assay: 20 μM of SNALP lipid and 6 μM of TNS were mixed in a fluorescence cuvette in 2 mL of 20 mM sodium phosphate, 25 mM citrate, 20 mM ammonium acetate and 150 mM NaCl, at a pH that was varied from 4.5 to 9.5. Fluorescence was determined at each pH using a Varian Eclipse Spectrofluorometer (Varian Inc) with settings of λex=322 nm, λem=431 nm. Fluorescence for each system at the various pH was then normalized to the value at pH 4.5. The pKa values are the point at which 50% of the molecules present are charged. By assuming that minimum fluorescence represents zero charge, and maximum fluorescence represents 100% charge, pKa can be estimated by measuring the pH at the point exactly half way between the values of minimum and maximum charge.
TNS is electrostatically attracted to positively charged membranes. Subsequent adsorption to the lipid membrane results in the immediate environment of the TNS becoming more lipophilic, removing the water molecules that otherwise quench TNS fluorescence. Since TNS is more readily absorbed by positively charged membranes, TNS fluorescence is an indicator of positive membrane surface charge. The surface pKa values of each SNALP formulation were determined by varying the local pH in the presence of TNS.

In the case of `CC/C=C\C/C=C\C/C=C\CCCCCCCCOCC(CN(C)C)OCCCCCCCC/C=C\C/C=C\C/C=C\CC` (centres unmarked) [DLenDMA, 1,2-Dilinolenyloxy-N,N-dimethylaminopropane], the “% Encapsulation” value in series [1] was found to be 85 ± 1%. Moreover, in series [2], the “Diameter (nm)” value was 132 ± 7 nm and the Polydispersity was 0.13 ± 0.03. In addition, in series [3], the “knockdown in gene expression (luciferase) versus control SNALP containing mismatch siRNA” value is on record as “slightly less efficient than those containing DLinDMA” and the “luciferase expression relative to untreated control” value is 32%. In addition, in the series on Neuro2A cells, the “cellular uptake of 3H-CHE-labeled SNALP” value was “particularly limited; also recorded: limited when compared to that of the DLinDMA formulation”. The “apparent (surface) pKa of cationic lipid in SNALP” value in series [4] stood at 6.7.

As to `CCCCCCCCCCCCCCCCCC[N+](C)(C)CCCCCCCCCCCCCCCCCC` [DSDMA, Distearyldimethylammonium], the “% Encapsulation” value in series [1] was 67% and 67 ± 3%. In addition, in series [2], the “Diameter (nm)” value is 180 nm and 182 ± 11 nm; the Polydispersity was 0.15 ± 0.03. For the same molecule, in series [3], the “knockdown in gene expression (luciferase) versus control SNALP containing mismatch siRNA” value was “no activity; also recorded: almost no capacity for effecting RNA interference” and the “luciferase expression relative to untreated control” value was “no effect on luciferase gene expression”. Further, in the series on Neuro2A cells, the “cellular uptake of 3H-CHE-labeled SNALP” value is listed as “greatest degree of uptake; also recorded: taken up most readily”. In series [4], the “apparent (surface) pKa of cationic lipid in SNALP” value was about 7.6.
